The values below come from US11026942B2, “Agent for preventing and/or treating Alzheimer's disease” (KYOTO UNIVERSITY, priority 2015, dated 2021).

What all share (assay type): cell-based, human
Assay [1] relates to Aβ42/40 ratio. Nature of the assay: Aβ42/40 ratio in FAD1 iPS cell-derived nerve cells (primary/secondary screening, dose dependency). As to conditions: secondary screening. The gist of the method: (§1)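 Cerebral cortex neurons were induced from FAD1 patient iPS cells by doxycycline-inducible NGN2, delivered by PiggyBac. Aβ40 and Aβ42 in the culture medium gave the Aβ42/40 ratio, with dose dependency examined in primary and secondary screens. The secondary screen also covered Aβ38, Aβ43, sAPPα and sAPPβ.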

Assay [2] concerns sAPPα. In words: sAPPα in FAD1 iPS cell-derived nerve cells (secondary screening). Also noted: scale not given here. How it is done:
(§2) To further study reproducibility of the candidate drugs obtained by the primary screening, secondary screening was conducted. In addition to Aβ40, Aβ42, Aβ42/40 ratio, Aβ38, Aβ43, sAPPα, sAPPβ were also studied and each numerical value was obtained.

The test system of assay [3] is Aβ43. Nature of the assay: Aβ43 in FAD1 iPS cell-derived nerve cells (secondary screening). More on the design: scale not given here. How it is done: as §2
The subject of assay [4] is Aβ42. In words: Aβ42 in FAD1 iPS cell-derived nerve cells (primary/secondary screening, dose dependency). As to conditions: secondary screening, FAD1 iPS cell-derived nerve cells, numerical value (Aβ change rate). The gist of the method: as §1
The test system of assay [5] is sAPPβ. In words: sAPPβ in FAD1 iPS cell-derived nerve cells (secondary screening). More on the design: sAPPβ: scale not given here. Here is the method: as §2
Assay [6] has as its system Aβ38. Nature of the assay: Aβ38 in FAD1 iPS cell-derived nerve cells (secondary screening). More on the design: scale not given here. How it is done: as §2
[7] abbreviates: secondary screening, FAD1 iPS cell-derived nerve cells.

Like-named read-outs stand apart in the source and are kept apart here.

In the case of `CNC(=C[N+](=O)[O-])NCCSCc1csc(CN(C)C)n1` [compound 78, NIZATIDINE], in assay [1], the “Ratio Aβ42/40” value was determined as 0.98. The sAPPα in assay [2] (setting [7]) was 0.97. The compound also had an Aβ43 in assay [3] of 1.15. The same compound yielded an Aβ42 in assay [4] of 1.04. The same compound showed a sAPPβ in assay [5] (setting [7]) of 1.29. In addition, in assay [6], the Aβ38 is on record as 1.3.

Take `C/N=C(\NC#N)NCCSCc1nc[nH]c1C` [compound 79, CIMETIDINE]: the “Ratio Aβ42/40” value in assay [1] is given as 1.04. In addition, the sAPPα in assay [2] (setting [7]) amounted to 0.87. Also, the Aβ43 in assay [3] came out at 0.92. In assay [4], this compound yielded an Aβ42 of 0.98. Besides, in assay [5] (setting [7]), the sAPPβ stood at 0.88. In assay [6], this compound returned an Aβ38 of 1.03.

On to `CN(C)CCc1c[nH]c2ccc(Cn3cncn3)cc12` [compound 80, RIZATRIPTAN], for which the “Ratio Aβ42/40” value in assay [1] was determined as 0.85. Moreover, in assay [2] (setting [7]), the sAPPα is recorded as 0.96. In assay [3], this compound displayed an Aβ43 of 1.07. Also, the Aβ42 in assay [4] came out at 0.96. In addition, the sAPPβ in assay [5] (setting [7]) is reported as 1.08. Besides, the Aβ38 in assay [6] is 1.2.

For the compound `COc1cc2nc(N(C)CCCNC(=O)C3CCCO3)nc(N)c2cc1OC` (stereo not drawn) [compound 81, ALFLUZOSIN], the “Ratio Aβ42/40” value in assay [1] is reported as 0.87. This compound returned a sAPPα in assay [2] (setting [7]) of 0.9. Also, in assay [3], the Aβ43 was determined as 1.03. This compound also yielded an Aβ42 in assay [4] of 0.96. The compound further gave a sAPPβ in assay [5] (setting [7]) of 0.97. Also, the Aβ38 in assay [6] is recorded as 1.22.

For the compound `CC(C)(C)NCC(O)c1ccccc1Cl` (stereo not drawn) [compound 82, TULOBUTEROL], the “Ratio Aβ42/40” value in assay [1] came to 0.85. In assay [2] (setting [7]), this compound displayed a sAPPα of 0.87. This compound also gave an Aβ43 in assay [3] of 0.84. In assay [4], this compound had an Aβ42 of 0.83. Besides, the sAPPβ in assay [5] (setting [7]) is reported as 0.74. The compound further had an Aβ38 in assay [6] of 1.

With `Cc1ncc(CNC(=O)N(CCCl)N=O)c(N)n1` [compound 83, NIMUSTINE], in assay [1], the “Ratio Aβ42/40” value was found to be 0.86. The compound also had a sAPPα in assay [2] (setting [7]) of 0.81. In assay [3], this compound showed an Aβ43 of 0.89. The Aβ42 in assay [4] is listed as 0.84. The sAPPβ in assay [5] (setting [7]) came out at 0.89. In assay [6], this compound showed an Aβ38 of 1.04.

Consider `COc1ccc(CN2CCNCC2)c(OC)c1OC` [compound 84, TRIMETAZIDINE], for which, in assay [1], the “Ratio Aβ42/40” value came out at 0.93. This compound also yielded a sAPPα in assay [2] (setting [7]) of 1.15. Moreover, the Aβ43 in assay [3] turned out to be 1.09. Also, in assay [4], the Aβ42 is 1.01. The compound also showed a sAPPβ in assay [5] (setting [7]) of 1.04. The same compound displayed an Aβ38 in assay [6] of 1.04.

Turning to `CC(C)(C)NCC(O)c1cc(Cl)c(N)c(Cl)c1` (stereo not drawn) [compound 85, CLENBUTEROL], in assay [1], the “Ratio Aβ42/40” value was 0.85. Moreover, the sAPPα in assay [2] (setting [7]) is 0.86. Also, the Aβ43 in assay [3] worked out at 0.94. The compound also came in with an Aβ42 in assay [4] of 0.88. The compound further showed a sAPPβ in assay [5] (setting [7]) of 0.84. For the same compound, the Aβ38 in assay [6] came out at 1.17.

For the compound `CCN(CC)CCNC(=O)c1cc(Br)c(N)cc1OC` [compound 86, BROMOPRIDE], in assay [1], the “Ratio Aβ42/40” value came out at 0.84. In assay [2] (setting [7]), this compound registered a sAPPα of 1. Also, the Aβ43 in assay [3] was determined as 0.9. In assay [4], this compound gave an Aβ42 of 0.84. In assay [5] (setting [7]), this compound showed a sAPPβ of 0.85. The compound further yielded an Aβ38 in assay [6] of 1.07.

As for `CC(C)c1cccc(C(C)C)c1O` [compound 87, PROPOFOL], the “Ratio Aβ42/40” value in assay [1] is on record as 0.91. The compound also registered a sAPPα in assay [2] of 0.94. This compound also displayed an Aβ43 in assay [3] of 0.88. The Aβ42 in assay [4] was 0.88. This compound also displayed a sAPPβ in assay [5] of 1. In assay [6], this compound yielded an Aβ38 of 0.99.

For the compound `Oc1c(Cl)cc(Cl)cc1Sc1cc(Cl)cc(Cl)c1O` [compound 88, BITHIONOL], in assay [1], the “Ratio Aβ42/40” value came to 0.97. Moreover, the sAPPα in assay [2] (setting [7]) is on record as 0.78. This compound also had an Aβ43 in assay [3] of 0.85. In assay [4], the Aβ42 turned out to be 0.93. The sAPPβ in assay [5] (setting [7]) is recorded as 0.92. In assay [6], this compound had an Aβ38 of 1.03.

On to `Cc1cccc(O)c1` [compound 89, CRESOL], for which, in assay [1], the “Ratio Aβ42/40” value is reported as 0.91. This compound yielded a sAPPα in assay [2] (setting [7]) of 0.71. In addition, the Aβ43 in assay [3] is 0.89. In assay [4], the Aβ42 is given as 0.81. For the same compound, the sAPPβ in assay [5] (setting [7]) is given as 0.58. This compound showed an Aβ38 in assay [6] of 0.93.
